# Results from paper PMC6155365, “A Phase 3 Study of Micafungin Versus Amphotericin B Deoxycholate in Infants With Invasive Candidiasis” (The Pediatric Infectious Disease Journal, 2018).
# Key:
# [1] = Clinical laboratory test findings, safety analysis set; format: in vivo, infants; details: postbaseline increase from baseline
# [2] = Adverse events, safety analysis set
# C. albicans [3] = test: In vitro susceptibility MIC, CLSI M27-A3; format: cell-based; details: Candida albicans
# Protocol: (§1) All fungal isolates were identified to the genus and species level using standard techniques. Briefly, each isolate was subcultured in CHROMagar Candida (Becton Dickinson and Company, Sparks, MD) and molecular identification by sequencing of the internal transcribed spacer region and/or 28S ribosomal subunit. In vitro susceptibility testing was performed on all fungal isolates collected during the study to calculate the minimum inhibitory concentrations (MICs) according to Clinical Laboratory Standards Institutes (CLSI) methodology (M27-A3) and European Committee on Antimicrobial Susceptibility Testing (EUCAST) methodology (EDef7.1).[24],[25]
# [4] = in vivo
# [5] = test system: Candida spp. (invasive candidiasis); test: Phase 3 randomized double-blind study, efficacy in infants with proven invasive candidiasis (NCT00815516); format: in vivo
# Protocol: This was a phase 3, randomized, double-blind, multicenter, parallel-group, noninferiority study (ClinicalTrials.gov identifier: […] The follow-up was performed to capture emergent and recurrent fungal infections, to obtain a final safety evaluation and to check for resolution of those IC episodes that had not resolved by the end of treatment. […] An independent Data Review Panel reviewed and confirmed the diagnosis of IC and evaluated the efficacy outcome for each subject. Drug safety was evaluated by an unblinded Data Safety and Monitoring Board. […] FFS was defined as an infant alive and fungal free with no requirement for continued treatment with alternative antifungal therapy. […] Responses were defined as follows: complete response (resolution of all attributable signs related to fungal infection); partial response (improvement in attributable signs related to the fungal infection); stabilization (minor improvement or no change in attributable signs related to the fungal infection and the infant continued on therapy without deterioration); progression (deterioration in attributable signs related to the fungal infection or death presumably related to fungal infection). […] Persistence was defined by continued isolation or histologic documentation from a normally sterile site. […] Following positive Candida cultures, end-organ dissemination was assessed using abdominal ultrasound and/or computed tomography scanning, echocardiogram, head imaging with ultrasound, magnetic resonance imaging or computed tomography scanning or ophthalmoscopy. An emergent fungal infection was defined as a non-Candida invasive fungal infection detected at any time during the study or any invasive fungal infection detected >96 hours postbaseline involving a Candida spp. other than those detected at baseline.
# C. glabrata [6] = test: In vitro susceptibility MIC, CLSI M27-A3; format: cell-based, Candida glabrata; details: Nakaseomyces glabratus; baseline isolate, persistent infection in AmB-D group
# Protocol: as §1
# C. glabrata [7] = test: In vitro susceptibility MIC, EUCAST EDef7.1; format: cell-based, Candida glabrata; details: Nakaseomyces glabratus; baseline isolate, persistent infection in AmB-D group
# Protocol: as §1
# C. albicans [8] = test: In vitro susceptibility MIC, EUCAST EDef7.1; format: cell-based, Candida albicans; details: for MIC: Candida albicans
# Protocol: as §1
# [9] = irrespective of relatedness to study drug
# [10] = possible or probable, as assessed by the investigator
# [11] = 216 h, follow-up cultures on day 9, AmB-D group infant
# [12] = baseline isolate, persistent infection in AmB-D group
structure (smiles),measurement,setting,value
"C[C@@H]1[C@H](O)[C@@H](C)/C=C/C=C/C=C/C=C/C=C/C=C/C=C/[C@H](O[C@@H]2O[C@H](C)[C@@H](O)[C@H](N)[C@@H]2O)C[C@@H]2O[C@](O)(C[C@@H](O)C[C@@H](O)[C@H](O)CC[C@@H](O)C[C@@H](O)CC(=O)O[C@H]1C)C[C@H](O)[C@H]2C(=O)O [AmB-D, Amphotericin B deoxycholate]",Serum creatinine increase >100%,[1],0 n/N (%)
same,Early discontinuation of treatment: AEs,"[2]; MCA n = 20, AmB-D n = 10",3 (30%) n (%)
same,Electrolyte supplementation received,"[2]; MCA n = 20, AmB-D n = 10",5 (50%) n (%)
same,TEAEs: Blood and lymphatic system disorders,[2]; MedDRA system organ class,6 (60) n (%)
same,TEAEs: General disorders and administration site conditions,[2]; MedDRA system organ class,5 (50) n (%)
same,TEAEs: Investigations,[2]; MedDRA system organ class,3 (30) n (%)
same,TEAEs: Metabolism and nutrition disorders,[2]; MedDRA system organ class,2 (20) n (%)
same,"TEAEs: Respiratory, thoracic and mediastinal disorders",[2]; MedDRA system organ class,3 (30) n (%)
same,TEAEs: Skin and subcutaneous tissue disorders,[2]; MedDRA system organ class,2 (20) n (%)
same,TEAEs: Vascular disorders,[2]; MedDRA system organ class,3 (30) n (%)
same,Deaths,[2]; all deaths reported from the study,1 (10) n (%)
same,Magnesium supplementation,[2]; in vivo,2 (20%) n (%)
same,Potassium supplementation,[2]; in vivo,3 (30%) n (%)
same,TEAE anemia,[2]; [9],3 (30%) n (%)
same,TEAE thrombocytopenia,[2]; [9],3 (30%) n (%)
same,Drug-related TEAEs,[2]; [10],5 (50) n (%)
same,Drug-related TEAEs leading to death,[2]; [10],0 n (%)
same,Drug-related serious TEAEs,[2]; [10],1 (10) n (%)
same,Serious TEAEs,[2]; safety analysis set,7 (70) n (%)
same,TEAEs,"[2]; safety analysis set, MCA N = 20 (10 mg/kg/d), AmB-D N = 10 (1 mg/kg/d)",9 (90) n (%)
same,MIC,C. albicans [3]; [11],1 µg/mL
same,MIC,C. albicans [3]; [12],1 µg/mL
same,TEAEs: Infections and infestations,[4],3 (30) n (%)
same,Early discontinuation of treatment: lack of efficacy,"[5]; MCA n = 20, AmB-D n = 10",1 (10%) n (%)
same,Clinical response: Partial,"[5]; at 1 week after last dose of study drug, infants with signs at baseline",0 n/N (%)
same,Positive clinical response,"[5]; at end of study and 1 week after last dose, infants with signs at baseline (MCA 18, AmB-D 10)",70%
same,Infants alive at 1 week after last dose but not fungal free,"[5]; did not meet primary efficacy end point, MCA n = 20, AmB-D n = 10",2 (20%) n (%)
same,Clinical response: Partial,[5]; end of study (30 days after last dose),0 n/N (%)
same,Emergent fungal infections through end of study,[5]; full analysis set,0 n/N (%)
same,MIC,C. glabrata [6],1 µg/mL
same,MIC,C. glabrata [7],0.5 µg/mL
same,MIC,C. albicans [8]; [11],0.25 µg/mL
same,MIC,C. albicans [8]; [12],0.5 µg/mL
same,"MIC, EUCAST","C. albicans [8]; follow-up cultures on day 9, AmB-D group infant",0.5 µg/mL
